doi:10.1101/2024.06.25.600598v1 (biorxiv, 2024)
pKi: −log10 of the molar value. Structures can show the parent of a compound that is named as a salt. Where two headings read alike, the source gives them in different places. Numbered stars: 1 amine (or outer) side, 2 acyl side, 3 side chain; on linkers, the order of the positions; unused ones are H or OH. Bridge positions count the residues as written; N and C are the ends. Square brackets hold non-standard residues; d marks the D form. Side chains are listed from the residue outwards. Peptide text beside a SMILES is read from it. * marks the point of attachment. Ethylenediamine = C(CN[*:2])N[*:1]; Hyp = O=C(O)[C@@H]1C[C@@H](O)CN1; hArg = N=C(N)NCCCC[C@H](N)C(=O)O; Phg = N[C@H](C(=O)O)c1ccccc1; CO = O=C([*:1])[*:2]; Bn = c1ccc(C*)cc1; Mpa = O=C(O)CCS

Tests used:
[1] = target: T1, fibroblast activation protein (FAP; rhFAP, SLIN-tagged hFAP) (Homo sapiens, UniProt Q12884); details: 2 µM; inhibitor
T1 sequence (Q12884 35-760): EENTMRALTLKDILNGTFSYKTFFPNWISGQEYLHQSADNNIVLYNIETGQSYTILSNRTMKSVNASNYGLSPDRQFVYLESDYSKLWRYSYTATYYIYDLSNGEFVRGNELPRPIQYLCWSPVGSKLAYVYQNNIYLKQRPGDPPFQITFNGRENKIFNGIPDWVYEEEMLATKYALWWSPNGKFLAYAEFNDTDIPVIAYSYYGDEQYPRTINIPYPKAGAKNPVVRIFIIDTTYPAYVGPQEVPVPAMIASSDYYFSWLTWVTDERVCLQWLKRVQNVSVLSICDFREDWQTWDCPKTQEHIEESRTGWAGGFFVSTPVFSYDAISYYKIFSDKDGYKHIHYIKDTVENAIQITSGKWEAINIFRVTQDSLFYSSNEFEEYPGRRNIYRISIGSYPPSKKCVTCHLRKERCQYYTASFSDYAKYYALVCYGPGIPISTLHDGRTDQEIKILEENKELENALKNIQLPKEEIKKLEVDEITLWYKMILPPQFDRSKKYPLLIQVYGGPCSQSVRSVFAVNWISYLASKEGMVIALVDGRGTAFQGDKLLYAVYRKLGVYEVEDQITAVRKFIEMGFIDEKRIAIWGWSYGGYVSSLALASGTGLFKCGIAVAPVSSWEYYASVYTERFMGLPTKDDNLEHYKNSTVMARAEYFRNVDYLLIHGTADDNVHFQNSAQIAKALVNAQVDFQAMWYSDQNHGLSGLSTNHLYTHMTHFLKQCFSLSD

[2] = target: T1, fibroblast activation protein (FAP; rhFAP, SLIN-tagged hFAP); assay: biochemical
[3] = target: T1, fibroblast activation protein (FAP; rhFAP, SLIN-tagged hFAP); assay: biochemical; remark: listed apart in the source

SMILES: CC(=C(CCOC(=O)C(C)C)SSC(CCOC(=O)C(C)C)=C(C)N(C=O)Cc1cnc(C)nc1N)N(C=O)Cc1cnc(C)nc1N (stereo in doubt) [Sulbutiamine]
- Relative inhibition (%), activity assay [1]: 15%
- pKi [2]: 5.24

SMILES: Nc1c2ccccc2nc2ccccc12 [9-Aminoacridine]
- pKi [3]: 4.91

SMILES: CCN1CCN(Cc2ccc(Nc3ncc(F)c(-c4cc(F)c5nc(C)n(C(C)C)c5c4)n3)nc2)CC1 [Abemaciclib (methanesulfonate)]
- Relative inhibition (%), activity assay [1]: 5%
- pKi [2]: 6.10

SMILES: COc1ccc(C(=O)N2CCCC2=O)cc1 [Aniracetam]
- pKi [3]: 4.39

SMILES: CCOc1nc2cccc(C(=O)OCc3oc(=O)oc3C)c2n1Cc1ccc(-c2ccccc2-c2noc(=O)[nH]2)cc1 [Azilsartan medoxomil]
- Relative inhibition (%), activity assay [1]: 11%
- pKi [2]: 5.41

SMILES: CCOC(=O)OC(C)OC(=O)[C@@H]1N2C(=O)[C@@H](NC(=O)[C@H](N)c3ccccc3)[C@H]2SC1(C)C (some centres unmarked) [Bacampicillin (hydrochloride)]
- pKi [3]: 4.90

SMILES: O=c1cc(-c2ccccc2)oc2cc(O)c(O)c(O)c12 [Baicalein]
- pKi [3]: 4.43

SMILES: Cn1c(CCCC(=O)O)nc2cc(N(CCCl)CCCl)ccc21 [Bendamustine]
- pKi [3]: 4.60

SMILES: NC(=NCc1ccccc1)NC(=O)c1nc(Cl)c(N)nc1N [Benzamil (hydrochloride)]
- pKi [3]: 4.45

SMILES: CCCC[C@H](NC(C)=O)C(=O)N[C@H]1CC(=O)NCCCC[C@@H](C(=O)O)NC(=O)[C@H](Cc2c[nH]c3ccccc23)NC(=O)[C@H](CCCN=C(N)N)NC(=O)[C@@H](Cc2ccccc2)NC(=O)[C@H](Cc2cnc[nH]2)NC1=O [Bremelanotide (Acetate)]
- pKi [3]: 4.60

SMILES: C=CCN1C[C@H](C(=O)N(CCCN(C)C)C(=O)NCC)C[C@@H]2c3cccc4[nH]cc(c34)C[C@H]21 [Cabergoline]
- pKi [3]: 4.76

SMILES: CC1(C)S[C@@H]2[C@H](NC(=O)C(C(=O)Oc3ccc4c(c3)CCC4)c3ccccc3)C(=O)N2[C@H]1C(=O)O (some centres unmarked) [Carindacillin (sodium)]
- pKi [3]: 4.84

SMILES: O=NN(CCCl)C(=O)NCCCl [Carmustine]
- pKi [3]: 4.77

SMILES: CC(=O)OCC1=C(C(=O)O)N2C(=O)[C@@H](NC(=O)CSC(=NC(C)C)NC(C)C)[C@H]2SC1 [Cefathiamidine]
- pKi [3]: 4.63

SMILES: Cc1nnc(SCC2=C(C(=O)O)N3C(=O)[C@@H](NC(=O)Cn4cc(Cl)c(=O)c(Cl)c4)[C@H]3SC2)s1 [Cefazedone]
- pKi [3]: 4.59

SMILES: CO/N=C(\C(=O)N[C@@H]1C(=O)N2C(C(=O)O)=C(CSc3nnnn3C)CS[C@H]12)c1csc(N)n1 [Cefmenoxime (hydrochloride)]
- pKi [3]: 4.60

SMILES: NCc1ccccc1CC(=O)N[C@@H]1C(=O)N2C(C(=O)O)=C(CSc3nnnn3CC(=O)O)CS[C@H]12 [Ceforanide]
- pKi [3]: 4.97

SMILES: COCC1=C(C(=O)OC(C)OC(=O)OC(C)C)N2C(=O)[C@@H](NC(=O)/C(=N\OC)c3csc(N)n3)[C@H]2SC1 (some centres unmarked) [Cefpodoxime Proxetil]
- pKi [3]: 4.46

SMILES: NC(=O)c1cc[n+](CC2=C(C(=O)O)N3C(=O)[C@@H](NC(=O)[C@@H](c4ccccc4)S(=O)(=O)[O-])[C@H]3SC2)cc1 [Cefsulodin (sodium)]
- pKi [3]: 4.38

SMILES: CC(C)(O/N=C(\C(=O)N[C@@H]1C(=O)N2C(C(=O)[O-])=C(C[n+]3ccccc3)CS[C@H]12)c1csc(N)n1)C(=O)O [Ceftazidime (pentahydrate)]
- pKi [3]: 4.68

SMILES: CO/N=C(\C(=O)N[C@@H]1C(=O)N2C(C(=O)O)=C(CSC(=O)c3ccco3)CS[C@H]12)c1csc(N)n1 [Ceftiofur (sodium)]
- pKi [3]: 4.64

SMILES: CC(C)(C)OC(=O)N[C@H]1CCCCC/C=C\[C@@H]2C[C@@]2(C(=O)NS(=O)(=O)C2CC2)NC(=O)[C@@H]2C[C@@H](OC(=O)N3Cc4cccc(F)c4C3)CN2C1=O [Danoprevir]
- pKi [3]: 4.71

SMILES: CC[N+](C)(C)c1cccc(O)c1 [Edrophonium (chloride)]
- pKi [3]: 4.45

SMILES: CC/C=C\C/C=C\C/C=C\C/C=C\C/C=C\CCCC(=O)O [Eicosapentaenoic Acid]
- pKi [3]: 4.80

SMILES: N=C(N)NCCCC[C@@H]1NC(=O)CCSSC[C@@H](C(N)=O)NC(=O)[C@@H]2CCCN2C(=O)[C@H](Cc2c[nH]c3ccccc23)NC(=O)[C@H](CC(=O)O)NC(=O)CNC1=O [Eptifibatide] ([Mpa][hArg]GDWPC-NH2; disulfide 1-7)
- pKi [3]: 4.56

SMILES: CCOc1ccc2nc3cc(N)ccc3c(N)c2c1 [Ethacridine (lactate monohydrate)]
- pKi [3]: 4.84

SMILES: Cc1oc(=O)oc1COC(=O)C1=C([C@H]2CCCO2)S[C@@H]2[C@@H]([C@@H](C)O)C(=O)N12 [Faropenem daloxate]
- pKi [3]: 4.88

SMILES: CCCCc1nc(C)c(CC(=S)N(C)C)c(=O)n1Cc1ccc(-c2ccccc2-c2nnn[nH]2)cc1 [Fimasartan]
- pKi [3]: 4.84

SMILES: Cc1c(-c2ccccc2)oc2c(C(=O)OCCN3CCCCC3)cccc2c1=O [Flavoxate (hydrochloride)]
- pKi [3]: 4.47

SMILES: Cc1ncc(NC(=O)c2ccc(CN3CCN(C)CC3)c(C(F)(F)F)c2)cc1Nc1nccc(-c2cccnc2)n1 [Flumatinib (mesylate)]
- pKi [3]: 4.91

SMILES: CCC(=O)O[C@@H](O[P@](=O)(CCCCc1ccccc1)CC(=O)N1C[C@H](C2CCCCC2)C[C@H]1C(=O)O)C(C)C [Fosinopril (sodium)]
- pKi [3]: 4.94

SMILES: CC(C)C[C@H](NC(=O)CNC(=O)c1cc(Cl)ccc1Cl)B1OC(=O)C(CC(=O)O)(CC(=O)O)O1 [Ixazomib citrate]
- pKi [3]: 4.60

SMILES: CC(C)C[C@H](NC(=O)CNC(=O)c1cc(Cl)ccc1Cl)B(O)O [Ixazomib]
- pKi [3]: 4.48

SMILES: Cc1ccc(NC(=O)C2(c3ccc4c(c3)OC(F)(F)O4)CC2)nc1-c1cccc(C(=O)O)c1 [Lumacaftor]
- pKi [3]: 5.00

SMILES: Cc1ccc(NC(=O)c2ccc(CN3CCN(C)CC3)cc2)cc1Nc1nc(-c2cccnc2)cs1 [Masitinib]
- pKi [3]: 4.36

SMILES: CCOC(=O)[C@@](C)(N)Cc1ccc(O)c(O)c1 [Methyldopate]
- pKi [3]: 4.53

SMILES: CN(C)c1ccc2nc3ccc(=[N+](C)C)cc-3sc2c1 [Methylene blue (trihydrate)]
- pKi [3]: 4.72

SMILES: O=C1c2c(O)ccc(O)c2C(=O)c2c(NCCNCCO)ccc(NCCNCCO)c21 [Mitoxantrone (dihydrochloride)]
- pKi [3]: 4.94

SMILES: COC(=O)c1ccc2c(c1)NC(=O)/C2=C(\Nc1ccc(N(C)C(=O)CN2CCN(C)CC2)cc1)c1ccccc1 [Nintedanib esylate]
- pKi [3]: 4.56

SMILES: NC(=O)c1cccc2cn(-c3ccc([C@@H]4CCCNC4)cc3)nc12 [Niraparib (tosylate)]
- pKi [3]: 4.79

SMILES: NCCCC[C@@H]1NC(=O)[C@@H](Cc2c[nH]c3ccccc23)NC(=O)[C@H](c2ccccc2)NC(=O)[C@@H]2C[C@@H](OC(=O)NCCN)CN2C(=O)[C@H](Cc2ccccc2)NC(=O)[C@H](Cc2ccc(OCc3ccccc3)cc2)NC1=O [Pasireotide (acetate)] (cyclo([Hyp]([CO-Ethylenediamine])[Phg][dW]KY(Bn)F))
- pKi [3]: 4.70

SMILES: Nc1ccc2cc3ccc(N)cc3nc2c1 [Proflavine (hemisulfate)]
- pKi [3]: 4.57

SMILES: C=CC[N+]1([C@H]2C[C@H]3[C@@H]4CC[C@H]5C[C@H](OC(C)=O)[C@@H](N6CCCCC6)C[C@]5(C)[C@H]4CC[C@]3(C)[C@H]2OC(=O)CC)CCCCC1 [Rapacuronium bromide]
- pKi [3]: 4.85

SMILES: CO[C@H]1/C=C/O[C@@]2(C)Oc3c(C)c(O)c4c(O)c(c(/C=N/N5CCN(C6CCCC6)CC5)c(O)c4c3C2=O)NC(=O)/C(C)=C\C=C\[C@H](C)[C@H](O)[C@@H](C)[C@@H](O)[C@@H](C)[C@H](OC(C)=O)[C@@H]1C [Rifapentine]
- pKi [3]: 4.92

SMILES: CNCc1ccc(-c2[nH]c3cc(F)cc4c3c2CCNC4=O)cc1 [Rucaparib]
- pKi [3]: 4.35

SMILES: CC(C)=CCOc1ccc(/C=C/C(=O)c2ccc(OCC=C(C)C)cc2OCC(=O)O)cc1 [Sofalcone]
- pKi [3]: 4.80

SMILES: COc1cc(C)c2c(Oc3cccc(C(F)(F)F)c3)c(OC)cc(NC(C)CCCN)c2n1 (centres unmarked) [Tafenoquine (Succinate)]
- pKi [3]: 4.79

SMILES: CN1Cc2c(Cl)cc(Cl)cc2[C@H](c2cccc(S(=O)(=O)NCCOCCOCCNC(=O)NCCCCNC(=O)NCCOCCOCCNS(=O)(=O)c3cccc([C@@H]4CN(C)Cc5c(Cl)cc(Cl)cc54)c3)c2)C1 [Tenapanor]
- pKi [3]: 4.60

SMILES: COc1cc(NCc2ccc3nc(N)nc(N)c3c2C)cc(OC)c1OC [Trimetrexate]
- pKi [3]: 4.57

SMILES: CCCc1nc(C)c2c(=O)[nH]c(-c3cc(S(=O)(=O)N4CCN(CC)CC4)ccc3OCC)nn12 [Vardenafil (hydrochloride)]
- pKi [3]: 4.40

SMILES: CC(=O)O[C@H]1C[C@@H]2CC[C@@H]3[C@H](CC[C@@]4(C)[C@H]3C[C@H]([N+]3(C)CCCCC3)[C@@H]4OC(C)=O)[C@@]2(C)C[C@@H]1N1CCCCC1 [Vecuronium (bromide)]
- pKi [3]: 4.59

SMILES: CC[C@@H]1C(=O)N(C)c2cnc(Nc3ccc(C(=O)N[C@H]4CC[C@H](N5CCN(CC6CC6)CC5)CC4)cc3OC)nc2N1C(C)C [Volasertib]
- pKi [3]: 4.96

SMILES: COc1cc(C(=O)NS(=O)(=O)c2ccccc2C)ccc1Cc1cn(C)c2ccc(NC(=O)OC3CCCC3)cc12 [Zafirlukast]
- pKi [3]: 4.87
